Several values for one entry are separate records, joined by “and”; a condition that tells them apart may be missing. Equal values may be shown once.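 Step 1: Grow cells in 96-well plates. Step 2: Expose to compound for 48 hours at 5 concentrations. Step 3: Interpolate endpoints linearly; if unreached, use highest concentration. The concentration for 50% growth inhibition is given as GI50.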 Activity calls are given as the source filed them. Rule as the data show it: active = GI50 up to about 1.1 µM and inactive = higher.
Tests used:
Assay in all cases: NCI anticancer screen, dose series, 48 h
BT-549 = system: BT-549
OVCAR-5 = system: OVCAR-5
HOP-92 = system: HOP-92
SF-295 = system: SF-295
SR = system: SR
KM12 = system: KM12
OVCAR-3 = system: OVCAR-3
CAKI-1 = system: CAKI-1
SK-MEL-2 = system: SK-MEL-2
MDA-N = system: MDA-N
NCI-H522 = system: NCI-H522
TK-10 = system: TK-10
PC-3 = system: PC-3
SF-268 = system: SF-268
RPMI-8226 = system: RPMI-8226
CCRF-CEM = system: CCRF-CEM
SK-OV-3 = system: SK-OV-3

| SMILES | GI50 (BT-549) | GI50 (OVCAR-5) | GI50 (HOP-92) | GI50 (SF-295) | GI50 (SR) | GI50 (KM12) | GI50 (OVCAR-3) | GI50 (CAKI-1) | GI50 (SK-MEL-2) | GI50 (MDA-N) | GI50 (NCI-H522) | GI50 (TK-10) | GI50 (PC-3) | GI50 (SF-268) | GI50 (RPMI-8226) | GI50 (CCRF-CEM) | GI50 (SK-OV-3) |
| --- | --- | --- | --- | --- | --- | --- | --- | --- | --- | --- | --- | --- | --- | --- | --- | --- | --- |
| O=C1c2ccccc2C(=O)c2c(Nc3ccc4c5c(cccc35)C(=O)c3ccccc3-4)cccc21 | > 100 µM (inactive) | > 100 µM (inactive) | > 100 µM (inactive) | > 100 µM (inactive) | > 100 µM (inactive) | > 100 µM (inactive) | > 100 µM (inactive) | > 100 µM (inactive) | > 100 µM (inactive) | > 100 µM (inactive) | > 100 µM (inactive) | > 100 µM (inactive) | > 100 µM (inactive) | > 100 µM (inactive) |  |  |  |
| COC(C)C(O)(C(=O)OCC1=CCN2CCC(O)C12)C(C)(C)O (centres undefined) | > 100 µM (inactive) | > 100 µM (inactive) | > 100 µM (inactive) | > 100 µM (inactive) |  | > 100 µM (inactive) | > 100 µM (inactive) | > 100 µM (inactive) | > 100 µM (inactive) | > 100 µM (inactive) | > 100 µM (inactive) | > 100 µM (inactive) | > 100 µM (inactive) | > 100 µM (inactive) | > 100 µM (inactive) | > 100 µM (inactive) | > 100 µM (inactive) |
| O=C(CCCN1CCC2(CC1)CC(=O)N(N1CCOCC1)C2=O)c1ccccc1 | 14.6 µM (inactive) | > 100 µM (inactive) |  | > 100 µM (inactive) | > 100 µM (inactive) | > 100 µM (inactive) | > 100 µM (inactive) | > 100 µM (inactive) |  | > 100 µM (inactive) | > 100 µM (inactive) | > 100 µM (inactive) | > 100 µM (inactive) | > 100 µM (inactive) | > 100 µM (inactive) | > 100 µM (inactive) | > 100 µM (inactive) |
| CC(=O)OCC1OC(n2c(C)c(C)cc(C#N)c2=S)C(OC(C)=O)C(OC(C)=O)C1OC(C)=O (centres undefined) | > 100 µM (inactive) |  |  | > 100 µM (inactive) | > 100 µM (inactive) | > 100 µM (inactive) | > 100 µM (inactive) | > 100 µM (inactive) | > 100 µM (inactive) and 72.1 µM (inactive) | > 100 µM (inactive) | > 100 µM (inactive) and 52.4 µM (inactive) | > 100 µM (inactive) | > 100 µM (inactive) | 60.5 µM (inactive) | > 100 µM (inactive) | > 10 µM (inactive) |  |
| O=C1c2c(Br)sc(Br)c2C(NC(=O)C(F)(F)F)C1O (centres undefined) | 19.4 µM (inactive) | 19.7 µM (inactive) | 18.8 µM (inactive) | 18.7 µM (inactive) |  | 30.1 µM (inactive) | 19.3 µM (inactive) | 17.5 µM (inactive) | 16.7 µM (inactive) | 19.1 µM (inactive) | 13.3 µM (inactive) | > 100 µM (inactive) | 26.1 µM (inactive) | 34 µM (inactive) |  | 26.3 µM (inactive) | 19.3 µM (inactive) |
| CCOC(=O)c1c(-c2ccccc2)c(OC)cn1C | > 10 µM (inactive) | > 10 µM (inactive) |  | > 10 µM (inactive) |  | > 10 µM (inactive) | > 10 µM (inactive) | > 10 µM (inactive) | > 10 µM (inactive) | > 10 µM (inactive) | > 10 µM (inactive) | > 10 µM (inactive) | > 10 µM (inactive) | > 10 µM (inactive) | > 10 µM (inactive) | > 10 µM (inactive) | > 10 µM (inactive) |
| Cc1ccc(S(=O)(=O)N2CCN3C(=O)c4ccccc4C32c2ccc(F)cc2)cc1 (centres undefined) | > 100 µM (inactive) | > 100 µM (inactive) |  | 85.7 µM (inactive) | 16.9 µM (inactive) | 43.7 µM (inactive) | > 100 µM (inactive) | 57.3 µM (inactive) | 55.6 µM (inactive) | 27.5 µM (inactive) | 55.8 µM (inactive) | > 100 µM (inactive) | 32 µM (inactive) | 98.4 µM (inactive) | 23.8 µM (inactive) | 35.1 µM (inactive) | > 100 µM (inactive) |
| [N-]=[N+]=CC(=O)CCC(=O)N(c1ccccc1)c1ccccc1 | > 10 µM (inactive) | > 10 µM (inactive) | > 10 µM (inactive) | > 10 µM (inactive) | > 10 µM (inactive) | > 10 µM (inactive) | > 10 µM (inactive) |  | 6.98 µM (inactive) | > 10 µM (inactive) |  | > 10 µM (inactive) | > 10 µM (inactive) | > 10 µM (inactive) |  | > 10 µM (inactive) | > 10 µM (inactive) |
| CC(C)(C)OC(=O)NC(CSCc1ccc(C(=O)c2ccccc2)cc1)C(=O)N1CCN(CCCCN2c3ccccc3Sc3cc(N=[N+]=[N-])ccc32)CC1 (centres undefined) | > 100 µM (inactive) | > 100 µM (inactive) | > 100 µM (inactive) | > 100 µM (inactive) |  | > 100 µM (inactive) | > 100 µM (inactive) | > 100 µM (inactive) | > 100 µM (inactive) | > 100 µM (inactive) | > 100 µM (inactive) | > 100 µM (inactive) | > 100 µM (inactive) | > 100 µM (inactive) |  | > 100 µM (inactive) | > 100 µM (inactive) |
| N#Cc1sc2nc3ccccc3n2c1N | 49.2 µM (inactive) | > 100 µM (inactive) | > 100 µM (inactive) | > 100 µM (inactive) |  | 0.344 µM (active) | 68.7 µM (inactive) | 37.2 µM (inactive) | 26.1 µM (inactive) | > 100 µM (inactive) | > 100 µM (inactive) | 14.9 µM (inactive) | 73.6 µM (inactive) | 60.3 µM (inactive) | 84.3 µM (inactive) | 29.3 µM (inactive) | 40.1 µM (inactive) |
| C=C1C(=O)O[C@@H]2[C@H]1C[C@@H](O)[C@H](C)[C@@](O)(C(=O)/C=C/C)[C@H]2OC(=O)C(C)CC (some centres undefined) | 5.45 µM (inactive) | 5.47 µM (inactive) | 3.21 µM (inactive) | 37.5 µM (inactive) |  | 14.8 µM (inactive) | 3.26 µM (inactive) | 1.26 µM (inactive) | 22.5 µM (inactive) | 3.08 µM (inactive) | 1.26 µM (inactive) | 3.37 µM (inactive) | 16.5 µM (inactive) | 15.4 µM (inactive) | 1.72 µM (inactive) | 0.0428 µM (active) | 42.2 µM (inactive) |
| COc1cc(CNC(=O)[C@H](Cc2ccc(O)cn2)NC(C)=O)cc(OC)c1 | > 100 µM (inactive) | > 100 µM (inactive) | 13.2 µM (inactive) | > 100 µM (inactive) |  | > 100 µM (inactive) | 50.6 µM (inactive) | > 100 µM (inactive) | > 100 µM (inactive) | > 100 µM (inactive) | > 100 µM (inactive) | > 100 µM (inactive) | 99.3 µM (inactive) | > 100 µM (inactive) | 29.5 µM (inactive) | > 100 µM (inactive) | > 100 µM (inactive) |
| O=C(O)Cc1cccc2c(=O)c3cccc([N+](=O)[O-])c3oc12 | > 100 µM (inactive) | > 100 µM (inactive) |  | > 100 µM (inactive) | > 100 µM (inactive) | > 100 µM (inactive) | > 100 µM (inactive) | > 100 µM (inactive) | > 100 µM (inactive) | > 100 µM (inactive) | > 100 µM (inactive) | > 100 µM (inactive) | > 100 µM (inactive) | > 100 µM (inactive) | > 100 µM (inactive) | > 100 µM (inactive) | > 100 µM (inactive) |
| CCCCCCCCCCCCCCCCOP(=O)(O)OP(=O)(O)OCC1OC(n2cnc3c(N)ncnc32)C(O)C1O (centres undefined) | 18.7 µM (inactive) | 11.5 µM (inactive) | 19.1 µM (inactive) |  | 31.8 µM (inactive) | > 100 µM (inactive) | > 100 µM (inactive) | 99.3 µM (inactive) | 49.8 µM (inactive) | 75.9 µM (inactive) | 19.9 µM (inactive) | > 100 µM (inactive) | 38.2 µM (inactive) | 73.8 µM (inactive) |  | 30.5 µM (inactive) | 33 µM (inactive) |
| COC(=O)[C@]1(c2cc3ccccc3[nH]2)CC2CN(C(=O)OCc3ccccc3)C1C=C2OC (some centres undefined) | 31 µM (inactive) | 21.3 µM (inactive) | 32.5 µM (inactive) | 27.2 µM (inactive) |  | 29 µM (inactive) | 24 µM (inactive) | 28.5 µM (inactive) | 17.5 µM (inactive) | 32.3 µM (inactive) | 27.2 µM (inactive) | 48.1 µM (inactive) | 26.7 µM (inactive) | 37.2 µM (inactive) | 26.5 µM (inactive) | 24.8 µM (inactive) | 36.9 µM (inactive) |
| CC(=O)C(CN1C(=O)c2ccccc2C1=O)C(C)=O | > 100 µM (inactive) | > 100 µM (inactive) | > 100 µM (inactive) | > 100 µM (inactive) |  |  | > 100 µM (inactive) | > 100 µM (inactive) | > 100 µM (inactive) | > 100 µM (inactive) | > 100 µM (inactive) | > 100 µM (inactive) | > 100 µM (inactive) | > 100 µM (inactive) |  |  | > 100 µM (inactive) |
| COc1ccc(-c2nnc3nc4ccccc4n3c2O)cc1 | > 100 µM (inactive) | > 100 µM (inactive) | 54 µM (inactive) | 10 µM (inactive) |  | > 100 µM (inactive) |  | > 100 µM (inactive) | > 100 µM (inactive) | > 100 µM (inactive) | > 100 µM (inactive) | > 100 µM (inactive) | > 100 µM (inactive) | > 100 µM (inactive) |  | > 100 µM (inactive) |  |
| Cn1ccc2c(c1=O)C(=O)OC2(C)C [CERPEGIN] | > 100 µM (inactive) | > 100 µM (inactive) |  | > 100 µM (inactive) | > 100 µM (inactive) | > 100 µM (inactive) | > 100 µM (inactive) | > 100 µM (inactive) |  | > 100 µM (inactive) |  | > 100 µM (inactive) | > 100 µM (inactive) | > 100 µM (inactive) | > 100 µM (inactive) | > 100 µM (inactive) | > 100 µM (inactive) |
